In patent US6054435A, “6-O-substituted macrolides having antibacterial activity” (priority 1999, dated 2000):
≈ marks a conversion by molar mass, not a printed value.

Experiments:
Test in all cases: in vitro antibacterial activity (MIC), agar dilution
Format in all cases: cell-based
[1] = test system: Streptococcus pyogenes EES61; conditions: organism code LL; BHI agar, 35-37° C., 20 to 24 hours; unit assumed
Method: (§1) Representative compounds of the present invention were assayed in vitro for antibacterial activity as follows: Twelve petri dishes containing successive aqueous dilutions of the test compound mixed with 10 mL of sterilized Brain Heart Infusion (BHI) agar (Difco 0418-01-5) were prepared. Each plate was inoculated with 1:100 (or 1:10 for slow-growing strains, such as Micrococcus and Streptococcus) dilutions of up to 32 different microorganisms, using a Steers replicator block. […] In addition, a control plate, using BHI agar containing no test compound, was prepared and incubated at the beginning and end of each test.
(§2) An additional plate containing a compound having known susceptibility patterns for the organisms being tested and belonging to the same antibiotic class as the test compound was also prepared and incubated as a further control, as well as to provide test-to-test comparability.
(§3) After incubation, each plate was visually inspected. The minimum inhibitory concentration (MIC) was defined as the lowest concentration of drug yielding no growth, a slight haze, or sparsely isolated colonies on the inoculum spot as compared to the growth control.

[2] = test system: Staphylococcus epidermidis 3519; conditions: organism code HH; BHI agar, 35-37° C., 20 to 24 hours; unit assumed
Method: as §1, §2, §3

[3] = test system: Staphylococcus aureus 1775; conditions: organism code GG; BHI agar, 35-37° C., 20 to 24 hours; unit assumed
Method: as §1, §2, §3

[4] = test system: Streptococcus pyogenes 930; conditions: organism code MM; BHI agar, 35-37° C., 20 to 24 hours; unit assumed
Method: as §1, §2, §3

[5] = test system: Enterococcus faecium ATCC 8043; conditions: organism code II; BHI agar, 35-37° C., 20 to 24 hours; unit assumed
Method: as §1, §2, §3

[6] = test system: Streptococcus pyogenes PIU 2548; conditions: organism code NN; BHI agar, 35-37° C., 20 to 24 hours; unit assumed
Method: as §1, §2, §3

[7] = test system: Haemophilis Influenzae DILL AMP R; conditions: organism code WW; BHI agar, 35-37° C., 20 to 24 hours; unit assumed
Method: as §1, §2, §3

Escherichia coli SS = conditions: organism code RR; BHI agar, 35-37° C., 20 to 24 hours; unit assumed
Method: as §1, §2, §3

[8] = test system: Mycobacterium smegmatis ATCC 114; conditions: organism code UU; BHI agar, 35-37° C., 20 to 24 hours; unit assumed
Method: as §1, §2, §3

[9] = test system: Nocardia Asteroides ATCC9970; conditions: organism code VV; BHI agar, 35-37° C., 20 to 24 hours; unit assumed
Method: as §1, §2, §3

[10] = test system: Streptococcus bovis A-5169; conditions: organism code JJ; BHI agar, 35-37° C., 20 to 24 hours; unit assumed
Method: as §1, §2, §3

Candida albicans CCH 442 = conditions: organism code TT; BHI agar, 35-37° C., 20 to 24 hours; unit assumed
Method: as §1, §2, §3

Escherichia coli JUHL = conditions: organism code QQ; BHI agar, 35-37° C., 20 to 24 hours; unit assumed
Method: as §1, §2, §3

[11] = test system: Staphylococcus aureus A-5278; conditions: organism code CC; BHI agar, 35-37° C., 20 to 24 hours; unit assumed
Method: as §1, §2, §3

[12] = test system: Staphylococcus aureus NCTC10649M; conditions: organism code EE; BHI agar, 35-37° C., 20 to 24 hours; unit assumed
Method: as §1, §2, §3

[13] = test system: Streptococcus Pneumonia ATCC6303; conditions: organism code XX; BHI agar, 35-37° C., 20 to 24 hours; unit assumed
Method: as §1, §2, §3

[14] = test system: Staphylococcus aureus ATCC 6538P; conditions: organism code AA; BHI agar, 35-37° C., 20 to 24 hours; unit assumed
Method: as §1, §2, §3

[15] = test system: Streptococcus Pneumonia 5979; conditions: organism code ZZ; BHI agar, 35-37° C., 20 to 24 hours; unit assumed
Method: as §1, §2, §3

[16] = test system: Streptococcus Pneumonia GYR 1171; conditions: organism code YY; BHI agar, 35-37° C., 20 to 24 hours; unit assumed
Method: as §1, §2, §3

[17] = test system: Micrococcus luteus ATCC 4698; conditions: organism code PP; BHI agar, 35-37° C., 20 to 24 hours; unit assumed
Method: as §1, §2, §3

[18] = test system: Streptococcus Pneumonia 5649; conditions: organism code ZZA; BHI agar, 35-37° C., 20 to 24 hours; unit assumed
Method: as §1, §2, §3

[19] = test system: Staphylococcus aureus A5177; conditions: organism code BB; BHI agar, 35-37° C., 20 to 24 hours; unit assumed
Method: as §1, §2, §3

[20] = test system: Streptococcus agalactiae CMX 508; conditions: organism code KK; BHI agar, 35-37° C., 20 to 24 hours; unit assumed
Method: as §1, §2, §3

[21] = test system: Staphylococcus aureus CMX 642A; conditions: organism code DD; BHI agar, 35-37° C., 20 to 24 hours; unit assumed
Method: as §1, §2, §3

Escherichia coli DC-2 = conditions: organism code SS; BHI agar, 35-37° C., 20 to 24 hours; unit assumed
Method: as §1, §2, §3

[22] = test system: Micrococcus luteus ATCC 9341; conditions: organism code OO; BHI agar, 35-37° C., 20 to 24 hours; unit assumed
Method: as §1, §2, §3

[23] = test system: Staphylococcus aureus CMX 553; conditions: organism code FF; BHI agar, 35-37° C., 20 to 24 hours; unit assumed
Method: as §1, §2, §3

Structure (SMILES)	MIC [1] [µg/mL]	MIC [2] [µg/mL]	MIC [3] [µg/mL]	MIC [4] [µg/mL]	MIC [5] [µg/mL]	MIC [6] [µg/mL]	MIC [7] [µg/mL]	MIC (Escherichia coli SS) [µg/mL]	MIC [8] [µg/mL]	MIC [9] [µg/mL]	MIC [10] [µg/mL]	MIC (Candida albicans CCH 442) [µg/mL]	MIC (Escherichia coli JUHL) [µg/mL]	MIC [11] [µg/mL]	MIC [12] [µg/mL]	MIC [13] [µg/mL]	MIC [14] [µg/mL]	MIC [15] [µg/mL]	MIC [16] [µg/mL]	MIC [17] [µg/mL]	other results
CC[C@H]1OC(=O)[C@H](C)C(=O)[C@H](C)[C@@H](O[C@@H]2O[C@H](C)C[C@H](N(C)C)[C@H]2O)[C@](C)(OCC#Cc2ccc(-c3cncc(C(=O)NN(C)C)c3)s2)C[C@@H](C)C(=O)[C@H](C)[C@H]2NC(=O)O[C@@]21C [Example 12]	0.05 (≈ 0.0567 µM)	0.39 (≈ 0.442 µM)	> 100	50 (≈ 56.7 µM)	0.02 (≈ 0.0227 µM)	0.78 (≈ 0.884 µM)	16 (≈ 18.1 µM)	0.78 (≈ 0.884 µM)	6.2 (≈ 7.03 µM)	0.2 (≈ 0.227 µM)	0.05 (≈ 0.0567 µM)	> 100	> 100	> 100	0.39 (≈ 0.442 µM)	0.03 (≈ 0.034 µM)	0.39 (≈ 0.442 µM)	1 (≈ 1.13 µM)	0.03 (≈ 0.034 µM)	0.39 (≈ 0.442 µM)	MIC [18]: 1 µg/mL (≈ 1.13 µM); MIC [19]: 0.39 µg/mL (≈ 0.442 µM); MIC [20]: 0.05 µg/mL (≈ 0.0567 µM)
CC[C@H]1OC(=O)[C@H](C)C(=O)[C@H](C)[C@@H](O[C@@H]2O[C@H](C)C[C@H](N(C)C)[C@H]2O)[C@](C)(OC/C=C/c2cncc(-c3ccccn3)c2)C[C@@H](C)C(=O)[C@H](C)[C@H]2NC(=O)O[C@@]21C [Example 43]	0.02 (≈ 0.0252 µM)	0.1 (≈ 0.126 µM)	> 100	25 (≈ 31.5 µM)	0.05 (≈ 0.0631 µM)	0.2 (≈ 0.252 µM)	2 (≈ 2.52 µM)	0.39 (≈ 0.492 µM)	0.78 (≈ 0.984 µM)	0.05 (≈ 0.0631 µM)	0.02 (≈ 0.0252 µM)	> 100	50 (≈ 63.1 µM)	> 100	0.2 (≈ 0.252 µM)	≤ 0.004	0.05 (≈ 0.0631 µM)	64 (≈ 80.7 µM)	≤ 0.004	0.2 (≈ 0.252 µM)	MIC [21]: 0.1 µg/mL (≈ 0.126 µM); MIC (Escherichia coli DC-2): 25 µg/mL (≈ 31.5 µM); MIC [22]: 0.02 µg/mL (≈ 0.0252 µM); MIC [23]: 0.05 µg/mL (≈ 0.0631 µM); MIC [19]: 0.05 µg/mL (≈ 0.0631 µM); MIC [20]: 0.05 µg/mL (≈ 0.0631 µM)
CC[C@H]1OC(=O)[C@H](C)C(=O)[C@H](C)[C@@H](O[C@@H]2O[C@H](C)C[C@H](N(C)C)[C@H]2O)[C@](C)(OC/C=C/c2cncc(-c3cncnc3)c2)C[C@@H](C)C(=O)[C@H](C)[C@H]2NC(=O)O[C@@]21C [Example 45]	≤ 0.005	0.1 (≈ 0.126 µM)	> 100	25 (≈ 31.5 µM)	0.05 (≈ 0.063 µM)	0.39 (≈ 0.491 µM)	2 (≈ 2.52 µM)	0.39 (≈ 0.491 µM)	1.56 (≈ 1.96 µM)	0.05 (≈ 0.063 µM)	≤ 0.005	> 100	50 (≈ 63 µM)	> 100	0.2 (≈ 0.252 µM)	0.008 (≈ 0.0101 µM)	0.05 (≈ 0.063 µM)	> 128	≤ 0.004	0.1 (≈ 0.126 µM)	MIC [21]: 0.1 µg/mL (≈ 0.126 µM); MIC (Escherichia coli DC-2): 25 µg/mL (≈ 31.5 µM); MIC [22]: 0.01 µg/mL (≈ 0.0126 µM); MIC [23]: 0.05 µg/mL (≈ 0.063 µM); MIC [19]: 0.05 µg/mL (≈ 0.063 µM); MIC [20]: ≤ 0.005 µg/mL
CC[C@H]1OC(=O)[C@H](C)C(=O)[C@H](C)[C@@H](O[C@@H]2O[C@H](C)C[C@H](N(C)C)[C@H]2O)[C@](C)(OCC#Cc2ccc(-c3cncc(C(=O)N(C)C)c3)s2)C[C@@H](C)C(=O)[C@H](C)[C@H]2NC(=O)O[C@@]21C [Example 11]	0.02 (≈ 0.0231 µM)	0.2 (≈ 0.231 µM)	> 100	> 100	0.39 (≈ 0.45 µM)	0.39 (≈ 0.45 µM)	16 (≈ 18.5 µM)	0.78 (≈ 0.9 µM)	> 12.5	0.2 (≈ 0.231 µM)	0.01 (≈ 0.0115 µM)	> 100	> 100	> 100	0.2 (≈ 0.231 µM)	0.03 (≈ 0.0346 µM)	0.1 (≈ 0.115 µM)	128 (≈ 148 µM)	0.03 (≈ 0.0346 µM)	0.2 (≈ 0.231 µM)	MIC [18]: 1 µg/mL (≈ 1.15 µM); MIC [19]: 0.2 µg/mL (≈ 0.231 µM); MIC [20]: 0.05 µg/mL (≈ 0.0577 µM)
CC[C@H]1OC(=O)[C@H](C)C(=O)[C@H](C)[C@@H](O[C@@H]2O[C@H](C)C[C@H](N(C)C)[C@H]2O)[C@](C)(OC/C=C/c2cncc(-c3ccccc3)c2)C[C@@H](C)C(=O)[C@H](C)[C@H]2NC(=O)O[C@@]21C [Example 42]	0.02 (≈ 0.0253 µM)	0.2 (≈ 0.253 µM)	> 100	50 (≈ 63.1 µM)	0.05 (≈ 0.0631 µM)	0.2 (≈ 0.253 µM)	4 (≈ 5.05 µM)	0.78 (≈ 0.985 µM)	0.39 (≈ 0.492 µM)	0.2 (≈ 0.253 µM)	0.02 (≈ 0.0253 µM)	> 100	100 (≈ 126 µM)	> 100	0.2 (≈ 0.253 µM)	0.03 (≈ 0.0379 µM)	0.1 (≈ 0.126 µM)	32 (≈ 40.4 µM)	0.03 (≈ 0.0379 µM)	0.2 (≈ 0.253 µM)	MIC [21]: 0.2 µg/mL (≈ 0.253 µM); MIC (Escherichia coli DC-2): 50 µg/mL (≈ 63.1 µM); MIC [22]: 0.02 µg/mL (≈ 0.0253 µM); MIC [23]: 0.1 µg/mL (≈ 0.126 µM); MIC [19]: 0.1 µg/mL (≈ 0.126 µM); MIC [20]: 0.02 µg/mL (≈ 0.0253 µM)
